Measured values from US6967201B1, “Benzofurylpiperazines and benzofurylhomopiperazines: serotonin agonists” (Eli Lilly and Company, priority 1999, dated 2005).

Row | Compound | melting point
1 | C[C@H]1CN(c2ccc(F)c3ccoc23)CCN1.O=C(O)C(=O)O | 191 °C (dec.)
2 | CC1(C)CNCCN1c1cc(F)cc2ccoc12.O=C(O)/C=C/C(=O)O | 162 to 165 °C
3 | C[C@@H]1CN(c2ccc(F)c3ccoc23)CCN1.O=C(O)C(=O)O | 192 °C (dec.)
